Results taken from ChEMBL document CHEMBL1201862, “PubChem BioAssay data set” (2004).
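In this assay, cells in 96-well plates receive the compound at five concentrations for 48 hours. Endpoints are linearly interpolated between the surrounding concentrations. Abbreviation: GI50, concentration required for 50% inhibition of growth.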 Calls of active or inactive are those of the source. No stated cut-off is given here; in the data, active = GI50 up to about 1.1 µM and inactive = higher.

Legend:
Assay in all cases: NCI tumour cell line growth inhibition, 48 h
MCF7 = test system: MCF7
KM12 = test system: KM12
OVCAR-3 = test system: OVCAR-3
NCI/ADR-RES = test system: NCI/ADR-RES
MOLT-4 = test system: MOLT-4
DLD-1 = test system: DLD-1
Malme-3M = test system: Malme-3M
DMS-273 = test system: DMS-273
HCC 2998 = test system: HCC 2998
SNB-78 = test system: SNB-78
HOP-62 = test system: HOP-62
HOP-18 = test system: HOP-18
KM-20L2 = test system: KM-20L2
SF-539 = test system: SF-539

| Compound | GI50 (MCF7) | GI50 (KM12) | GI50 (OVCAR-3) | GI50 (NCI/ADR-RES) | GI50 (MOLT-4) | GI50 (DLD-1) | GI50 (Malme-3M) | GI50 (DMS-273) | GI50 (HCC 2998) | GI50 (SNB-78) | GI50 (HOP-62) | GI50 (HOP-18) | GI50 (KM-20L2) | GI50 (SF-539) |
| --- | --- | --- | --- | --- | --- | --- | --- | --- | --- | --- | --- | --- | --- | --- |
| Cc1cccc2nc3c(C(=O)NCCN(C)C)cccc3cc12 | 2.2 µM (inactive) | 2.29 µM (inactive) | 2.05 µM (inactive) | 1.95 µM (inactive) | 0.337 µM (active) | 1.42 µM (inactive) | 1.38 µM (inactive) | 0.929 µM (active) | 2.05 µM (inactive) | 2.62 µM (inactive) | 1.72 µM (inactive) | 2.04 µM (inactive) | 1.41 µM (inactive) | 2.01 µM (inactive) |
| CC(C)C1NC(=O)CC(c2ccccc2)N(N=O)C1c1ccccc1 (stereo unspecified) | > 100 µM (inactive) | > 100 µM (inactive) | > 68.9 µM (inactive) | > 100 µM (inactive) | > 100 µM (inactive) | > 100 µM (inactive) | > 100 µM (inactive) | > 100 µM (inactive) | > 100 µM (inactive) | > 100 µM (inactive) | > 100 µM (inactive) | > 100 µM (inactive) | > 100 µM (inactive) | > 100 µM (inactive) |
| O=C(O)CNS(=O)(=O)c1ccc(NC(=O)Nc2ccccc2)cc1 | > 100 µM (inactive) | > 100 µM (inactive) | > 100 µM (inactive) | > 100 µM (inactive) | > 100 µM (inactive) | > 100 µM (inactive) | > 100 µM (inactive) | > 100 µM (inactive) | > 100 µM (inactive) | > 100 µM (inactive) | > 100 µM (inactive) | > 100 µM (inactive) | > 100 µM (inactive) | > 100 µM (inactive) |
| Cc1c2cc[n+](Cc3ccc(I)cc3)cc2c(C)c2c1[nH]c1ccccc12 | 0.783 µM (active) | 0.402 µM (active) | 0.791 µM (active) | > 25 µM (inactive) | 0.574 µM (active) | 0.94 µM (active) | 0.582 µM (active) | 0.506 µM (active) | 0.881 µM (active) | 0.731 µM (active) | 0.778 µM (active) | 1 µM (active) | 0.748 µM (active) | 1.74 µM (inactive) |
